Reference: paper PMC9352027, “Targeting lipid biosynthesis pathways for hepatitis B virus cure” (PLoS ONE, 2022)
Read-outs that look alike come from different tables or passages of the source.

Legend:
[1] = test system: HBeAg in HBV-infected HepG2-NTCP cells; test: microbe, parasite or virus in culture; format: cell-based, Hepatitis B virus genotype D (AD38); conditions: read-out: HBeAg, EC50
Experimental: (§1) Production of wild-type HBV virions from HepAD38 cells was performed as previously described. HepG2-NTCP cells were bulk plated on collagen coated flasks at a density of 6x10^6 cells/ T175 flask. Following a 3-day incubation at 37°C, cells were infected with genotype D (AD38) virus at […] in the presence of 4% PEG8000 and 2.5% DMSO. HepG2-NTCP cells were washed 3 times with OPTI-MEM and maintained in Dulbecco’s modified Eagle’s medium (DMEM) supplemented with 2% FBS and 2.5% DMSO for the following 4 days. HBV-infected HepG2-NTCP cells were trypsinized, resuspended in DMEM supplemented with 2% FBS and 1% DMSO, and seeded onto serially diluted small molecule inhibitors at a 0.5% final DMSO concentration (S1 Table) in 384-well collagen coated plates at a density of 20,000 cells/well for 3 additional days.
(§2) Cell culture supernatant (3 μL) was transferred to two 1536-well plates and HBsAg and HBeAg levels subsequently measured by HTRF (Cisbio). HBsAg was measured using Terbium conjugated (XTL-17) and D2 receptor conjugated (XTL19) anti-HBsAg antibodies, while HBeAg was measured using Terbium conjugated (GWB-F19420, Genway Biotech) and D2 receptor conjugated (GWB-24DEF, Genway Biotech) anti-HBeAg antibodies. […] was measured using an Envision plate reader at emissions of 665 nm and 615 nm. The ratio of 665/615 was used to plot compound dose response curves and EC50 values were calculated from the fit of the dose−response curves to a four-parameter equation.
(§3) (A) Schematic overview of the pathways involved in lipid biosynthesis, such as DNL, TG esterification and cholesterol biosynthesis. […] (B-D) HepG2-NTCP cells infected with HBV for three days were treated with selected compounds in an eight-point dose response. After three days of treatment, extracellular HBsAg and HBeAg levels as well as cell viability were measured.

[2] = test system: HBsAg secretion in HBV-infected HepG2-NTCP cells; test: microbe, parasite or virus in culture; format: cell-based, Hepatitis B virus genotype D (AD38); conditions: for EC50: read-out: HBsAg, EC50
Experimental: as §1, §2, §3

[3] = Cell viability by CellTiter Glo; format: cell-based, human; conditions: human; HBV-infected HepG2-NTCP cells, three days of treatment
Experimental: as §1
(§4) Cells were analyzed for cell viability by addition of CellTiter Glo (Promega) to the assay plates and analyzed using an Envision plate reader (Perkin Elmer). CC50 values were calculated from the fit of the dose−response curves to a four-parameter equation. All CC50 values represent geometric mean values of a minimum of four determinations.
as §3

[4] = test system: HBV-infected HepG2-NTCP cells; test: Cell viability by CellTiter Glo; format: cell-based, human; conditions: three days of treatment
Experimental: as §1, §4, §3

HBV genotype C = test: ACC inhibitor efficacy study in HBV-infected chimeric humanized mice: serum viral markers; format: in vivo, human liver-chimeric uPA/SCID mice; conditions: 10 mg/kg oral once daily for four weeks, throughout the study
Experimental: (§5) For the ACC inhibitor efficacy study, HBV-infected mice were randomized into two different treatment groups based on body weight, blood h-Alb, and serum HBV DNA concentrations. All mice had blood h-Alb levels above 12 mg/mL and serum HBV DNA levels above 2.5x10^7 copies/mL. Mice received an oral dose of 10 mg/kg ACC inhibitor or dosing vehicle (vehicle control) once daily for 29 days. ACC inhibitor was dosed in 0.5% sodium carboxymethylcellulose (medium viscosity), 1% w/v ethanol, 98.5% w/v 50 mM Tris buffer, pH 8 in reverse osmosis water (or equivalent). Terminal livers were collected, weighed, and separated into pieces that were flash frozen in liquid nitrogen or immersed in RNAlater solution (Life Technologies, Carlsbad, CA).
(§6) Whole blood h-Alb was determined using (BioMajestyTM Series JCA-BM6050, JEOL Ltd., Tokyo, Japan). Serum human alanine aminotransferase (h-ALT1) concentration was determined based on Enzyme-Linked ImmunoSorbent Assay (ELISA) developed by Institute of Immunology Co., Ltd. (Tokyo, Japan). […] Serum HBsAg and HBeAg concentration were determined by SRL, Inc. (Tokyo, Japan) based on Chemiluminescent Enzyme Immuno Assay (CLEIA) developed by Fujirebio. […] RNA was isolated from RNAlater®-immersed liver samples with RNeasy kit following manufacturer’s instructions (Qiagen). qRT-PCR on the targeted genes was evaluated by Taqman (Assay IDs Hs04984975_m1 (SREBF1), Hs01682761_m1 (SCD), Hs01005622_m1 (FASN), Hs01046047_m1 (ACACA) and normalized to GAPDH endogenous control (Assay ID 4310884E).
(§7) Using the same batch of human hepatocytes and HBV virus used for the metabolomic and RNAseq analyses, mice (n = 7/group) were dosed orally eight weeks post HBV infection with vehicle or 10 mg/kg ACC inhibitor once daily for four weeks. HBV viral markers (HBsAg, HBeAg, and HBV DNA) and liver toxicity markers (ALT, h-Alb) were measured weekly (Fig 5A). On-target activity was evaluated by monitoring changes in triglycerides and liver mRNA expression levels of genes in the targeted pathway (Fig 5A).

[5] = two hours post dosing
Experimental: as §5, with “Terminal livers were collected, weighed, and separated into pieces that were flash frozen in liquid nitrogen or immersed in RNAlater solution (Life Technologies, Carlsbad, CA).” left out
as §6

ACC = test: On-target activity: serum and liver triglycerides and liver mRNA by qRT-PCR; format: in vivo, human liver-chimeric uPA/SCID mice; conditions: 10 mg/kg oral once daily, versus vehicle
Experimental: as §5
Whole blood h-Alb was determined using (BioMajestyTM Series JCA-BM6050, JEOL Ltd., Tokyo, Japan). Serum human alanine aminotransferase (h-ALT1) concentration was determined based on Enzyme-Linked ImmunoSorbent Assay (ELISA) developed by Institute of Immunology Co., Ltd. (Tokyo, Japan). The real-time detection PCR to measure the serum HBV DNA concentration was performed using the KUBIX HBV qPCR Kit (KUBIX Inc.) and CFX96 Touch™ Real-Time PCR Detection System. […] Serum HBsAg and HBeAg concentration were determined by SRL, Inc. (Tokyo, Japan) based on Chemiluminescent Enzyme Immuno Assay (CLEIA) developed by Fujirebio. Serum and intrahepatic triglycerides analysis were performed by Skylight Biotech Inc. (Akita, Japan). Terminal plasma and liver were collected 2-hours after ACC inhibitor dose for PK analysis which was performed by Charles River Laboratories (Wilmington, MA). RNA was isolated from RNAlater®-immersed liver samples with RNeasy kit following manufacturer’s instructions (Qiagen). qRT-PCR on the targeted genes was evaluated by Taqman (Assay IDs Hs04984975_m1 (SREBF1), Hs01682761_m1 (SCD), Hs01005622_m1 (FASN), Hs01046047_m1 (ACACA) and normalized to GAPDH endogenous control (Assay ID 4310884E).
as §7

[6] = format: in vivo, human liver-chimeric uPA/SCID mice; conditions: 10 mg/kg oral once daily for four weeks
Experimental: All animal work was performed by PhoenixBio Co, Ltd (Higashi-Hiroshima City, Japan). Detailed observations of general condition and individual body weights were conducted once daily throughout the in-life phase. All animal protocols were performed in accordance with the Guide for the Care and Use of Laboratory Animals and approved by the Animal Welfare Committee of Phoenix Bio Co., Ltd. All mice were housed individually and maintained in accordance with the Animal Ethics Committee of PhoenixBio (resolution #2518 and 2552). All surgery was performed under isoflurane anesthesia, and all efforts were made to minimize suffering. On Day 17, Animal ID No. 107 (vehicle-treated) was found dead.

DNL in HepG2 cells = test system: DNL in HepG2 cells; design: method as in PMID 32376414, doi:10.1002/hep.31579; conditions: cited from earlier work
[7] = test system: triglyceride accumulation in HepG2 cells; design: method as in PMID 32376414, doi:10.1002/hep.31579; conditions: read-out: palmitic acid-induced triglyceride accumulation EC50; cited from earlier work
[8] = test system: HBsAg secretion in Hep3B cells; design: method as in PMID 14517078; conditions: depletion of cellular cholesterol; cited from earlier work
ACC1 and ACC2 = test system: ACC1 and ACC2; design: method as in PMID 29705265, PMID 30059671; conditions: cited from earlier work
[9] = HBV-infected HepG2-NTCP cells, three days of treatment, extracellular

CCOC(=O)[C@@]1(CCCCCCOc2ccc(Cl)cc2)CO1 [Etomoxir, ethyl (R)-2-(6-(4-chlorophenoxy)hexyl)oxirane-2-carboxylate]
EC50 ([1]; Hepatitis B virus, 72 h): > 10 µM
EC50 ([2]; Hepatitis B virus, 72 h): > 10 µM
CC50 at 3 days [3]: > 10 µM

CCCc1cc(-c2nc(-c3ccc(C)cc3)cs2)ccn1 [Fatostatin, 2-(2-propylpyridin-4-yl)-4-(p-tolyl)thiazole]
EC50 ([1]; Hepatitis B virus, 72 h): > 10 µM
EC50 ([2]; Hepatitis B virus, 72 h): > 10 µM
CC50 at 3 days [3]: > 10 µM

COc1ccccc1[C@H](Cn1c(=O)n(C(C)(C)C(=O)O)c(=O)c2c(C)c(-c3ncco3)sc21)O[C@H]1CC[C@@H](O)CC1 [ACC inhibitor, 2-(1-((R)-2-(((1s,4S)-4-hydroxycyclohexyl)oxy)-2-(2-methoxyphenyl)ethyl)-5-methyl-6-(oxazol-2-yl)-2,4-dioxo-1,4-dihydrothieno[2,3-d]pyrimidin-3(2H)-yl)-2-methylpropanoic acid]
EC50 [1, 9]: 9.6 µM
selectivity HBsAg versus HBeAg ([2]; HBV-infected HepG2-NTCP cells): inhibition of HBeAg but at a higher concentration than HBsAg
inhibition of HBsAg secretion ([2]; HBV-infected HepG2-NTCP cells, maximal (up to)): up to 80%
EC50 [2, 9]: 0.029 µM
CC50 [4]: > 10 µM
reduction in serum HBV DNA levels (HBV genotype C): no reduction
reduction in serum HBeAg levels (HBV genotype C): no reduction
reduction in serum HBsAg levels (HBV genotype C): no reduction
Liver exposure over protein-adjusted EC50 (paEC50) ([5]; paEC50 based on HepG2-serum free-DNL assay): 4.5 fold
Liver exposure ([5]; 10 mg/kg oral once daily, HBV-infected chimeric humanized mice): 740 nM
increase in serum triglycerides (ACC; day 17 of treatment): 30%
reduction in liver triglycerides (ACC; day 29 of treatment): 40%
liver mRNA expression level of ACACA (ACC; qRT-PCR): statistically significant increase
liver mRNA expression level of FASN (ACC; qRT-PCR): statistically significant increase
liver mRNA expression level of SCD (ACC; qRT-PCR): statistically significant increase
liver mRNA expression level of SREBF1 (ACC; qRT-PCR): increased with ACC treatment albeit did not reach statistical significance
toxicity based on body weight change, serum ALT, and h-Alb levels [6]: no evidence of toxicity
EC50 (DNL in HepG2 cells): 0.0066 µM
EC50 [7]: 0.023 µM

C=C(C)[C@@H]1CC[C@]2(CO)CC[C@]3(C)[C@H](CC[C@@H]4[C@@]5(C)CC[C@H](O)C(C)(C)[C@@H]5CC[C@]43C)[C@@H]12 [Betulin, (1R,3aS,5aR,5bR,7aR,9S,11aR,11bR,13aR,13bR)-3a-(hydroxymethyl)-5a,5b,8,8,11a-pentamethyl-1-(prop-1-en-2-yl)icosahydro-1H-cyclopenta[a]chrysen-9-ol]
EC50 ([1]; Hepatitis B virus, 72 h): > 10 µM
EC50 ([2]; Hepatitis B virus, 72 h): > 10 µM
CC50 at 3 days [3]: > 10 µM

CCCCCCCCc1ccc(CCC(N)(CO)CO)cc1 [FTY720, 2-amino-2-(4-octylphenethyl)propane-1,3-diol]
EC50 ([1]; Hepatitis B virus, 72 h): > 10 µM
EC50 ([2]; Hepatitis B virus, 72 h): > 10 µM
CC50 at 3 days [3]: > 10 µM

Oc1ccc(Nc2nc(-c3ccc(Cl)cc3)cs2)cc1 [SKI-II, 4-((4-(4-chlorophenyl)thiazol-2-yl)amino)phenol]
EC50 ([1]; Hepatitis B virus, 72 h): > 10 µM
EC50 ([2]; Hepatitis B virus, 72 h): 8.84 µM
CC50 at 3 days [3]: > 10 µM

CC[C@H](C)C(=O)O[C@H]1C[C@@H](C)C=C2C=C[C@H](C)[C@H](CC[C@@H]3C[C@@H](O)CC(=O)O3)[C@H]21 [lovastatin]
HBsAg secretion [8]: significantly reduced

COc1ccccc1[C@H](Cn1c(=O)n(C(C)(C)C(=O)O)c(=O)c2c(C)c(-c3ncco3)sc21)OC1CCOCC1 [FIR, Firsocostat]
liver fat reduction (ACC1 and ACC2; observed clinically): ~ 30%
DNL inhibition (ACC1 and ACC2; partial target inhibition observed clinically): ~ 70%

O=C(O)C[C@H]1CC[C@H](c2ccc(-c3ccc(Nc4ccc(C(F)(F)F)nc4)cn3)cc2)CC1 [Pradagilast, 2-((1r,4r)-4-(4-(5-((6-(trifluoromethyl)pyridin-3-yl)amino)pyridin-2-yl)phenyl)cyclohexyl)acetic acid]
EC50 ([1]; Hepatitis B virus, 72 h): > 10 µM
EC50 ([2]; Hepatitis B virus, 72 h): > 10 µM
CC50 at 3 days [3]: > 10 µM

CCOC(=O)c1ccc(CN(Cc2ccc(-c3cccc(S(C)(=O)=O)c3)cc2)S(=O)(=O)c2c(C)cc(C)cc2C)o1 [LXR Inverse Agonist, ethyl 5-(((2,4,6-trimethyl-N-((3'-(methylsulfonyl)-[1,1'-biphenyl]-4-yl)methyl)phenyl)sulfonamido)methyl)furan-2-carboxylate]
EC50 [1, 9]: > 10 µM
EC50 [2, 9]: > 10 µM
CC50 [4]: > 10 µM

CCCCCCCCc1ccc(CC[C@](N)(CO)COP(=O)(O)O)cc1 [FTY720 (S)-phosphate, (S)-2-amino-2-(hydroxymethyl)-4-(4-octylphenyl)butyl dihydrogen phosphate]
EC50 [1, 9]: > 10 µM
EC50 [2, 9]: > 10 µM
CC50 [4]: > 10 µM
